Experimental data reported in article PMC7026418, “The kinase polypharmacology landscape of clinical PARP inhibitors” (Scientific Reports, 2020).
Read-outs that look alike come from different tables or passages of the source.

What was measured:
Assay in all cases: biochemical
Parameters in all cases: DiscoveRx KINOMEscan active site-directed competition binding; percent of control kinase bound to immobilised ligand
MLK3 = target: T1, MLK3 (Homo sapiens, UniProt Q16584)
T1 construct: gene MAP3K11

PCTK3 = target: T2, PCTK3 (Homo sapiens, UniProt Q07002)
T2 construct: gene CDK18

EGFR(L747-T751del,Sins) = EGFR(L747-T751del,Sins) (Homo sapiens, UniProt P00533, DEL747-750/T751S)
SRMS = SRMS (Homo sapiens, UniProt Q9H3Y6)
MYLK4 = target: T3, MYLK4 (Homo sapiens, UniProt Q86YV6)
T3 sequence (Q86YV6 1-388): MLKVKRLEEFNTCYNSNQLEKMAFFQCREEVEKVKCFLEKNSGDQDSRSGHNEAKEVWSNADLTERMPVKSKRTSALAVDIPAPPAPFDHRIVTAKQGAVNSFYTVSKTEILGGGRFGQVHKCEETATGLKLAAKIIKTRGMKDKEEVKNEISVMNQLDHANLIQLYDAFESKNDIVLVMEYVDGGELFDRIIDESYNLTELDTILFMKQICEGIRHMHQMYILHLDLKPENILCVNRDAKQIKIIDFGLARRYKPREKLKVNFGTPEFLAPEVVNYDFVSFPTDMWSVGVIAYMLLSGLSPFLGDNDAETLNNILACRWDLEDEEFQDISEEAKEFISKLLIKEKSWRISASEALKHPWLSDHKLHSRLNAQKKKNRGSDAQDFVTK

GRK1 = target: T4, GRK1 (Homo sapiens, UniProt Q15835)
T4 sequence (Q15835 1-563): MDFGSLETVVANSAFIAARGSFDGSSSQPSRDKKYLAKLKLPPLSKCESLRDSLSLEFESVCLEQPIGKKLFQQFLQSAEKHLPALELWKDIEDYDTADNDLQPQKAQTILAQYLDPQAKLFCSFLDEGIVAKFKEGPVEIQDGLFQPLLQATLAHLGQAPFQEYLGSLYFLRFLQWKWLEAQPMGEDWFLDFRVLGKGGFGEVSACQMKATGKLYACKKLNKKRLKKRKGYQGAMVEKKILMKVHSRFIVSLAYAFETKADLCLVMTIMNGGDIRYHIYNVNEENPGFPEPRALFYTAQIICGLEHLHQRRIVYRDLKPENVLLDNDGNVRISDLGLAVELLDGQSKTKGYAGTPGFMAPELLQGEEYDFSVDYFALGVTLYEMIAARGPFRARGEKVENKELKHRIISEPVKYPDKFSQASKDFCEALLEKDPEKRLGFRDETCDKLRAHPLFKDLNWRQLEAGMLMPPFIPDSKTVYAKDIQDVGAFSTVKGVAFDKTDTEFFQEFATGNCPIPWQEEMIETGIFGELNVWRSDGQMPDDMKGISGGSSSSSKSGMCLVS

PIK3CA(I800L) = PIK3CA(I800L) (Homo sapiens, UniProt P42336, I800L)
TLK2 = TLK2 (Homo sapiens, UniProt Q86UE8)
SIK2 = SIK2 (Homo sapiens, UniProt Q9H0K1)
AMPK-alpha1 = target: T5, AMPK-alpha1 (Homo sapiens, UniProt Q13131)
T5 construct: gene PRKAA1

FES = FES (Homo sapiens, UniProt P07332)
VRK2 = VRK2 (Homo sapiens, UniProt Q86Y07)
SRPK2 = SRPK2 (Homo sapiens, UniProt P78362)
[1] = read-out: Talazoparib (BMN 673) / %Ctrl @ 10000nM
[2] = read-out: Olaparib / %Ctrl @ 10000nM
[3] = read-out: Niraparib (MK-4827) / %Ctrl @ 10000nM
[4] = read-out: Rucaparib / %Ctrl @ 10000nM, binding competition, % of control

Sequence of SIK2 (Q9H0K1 whole entry): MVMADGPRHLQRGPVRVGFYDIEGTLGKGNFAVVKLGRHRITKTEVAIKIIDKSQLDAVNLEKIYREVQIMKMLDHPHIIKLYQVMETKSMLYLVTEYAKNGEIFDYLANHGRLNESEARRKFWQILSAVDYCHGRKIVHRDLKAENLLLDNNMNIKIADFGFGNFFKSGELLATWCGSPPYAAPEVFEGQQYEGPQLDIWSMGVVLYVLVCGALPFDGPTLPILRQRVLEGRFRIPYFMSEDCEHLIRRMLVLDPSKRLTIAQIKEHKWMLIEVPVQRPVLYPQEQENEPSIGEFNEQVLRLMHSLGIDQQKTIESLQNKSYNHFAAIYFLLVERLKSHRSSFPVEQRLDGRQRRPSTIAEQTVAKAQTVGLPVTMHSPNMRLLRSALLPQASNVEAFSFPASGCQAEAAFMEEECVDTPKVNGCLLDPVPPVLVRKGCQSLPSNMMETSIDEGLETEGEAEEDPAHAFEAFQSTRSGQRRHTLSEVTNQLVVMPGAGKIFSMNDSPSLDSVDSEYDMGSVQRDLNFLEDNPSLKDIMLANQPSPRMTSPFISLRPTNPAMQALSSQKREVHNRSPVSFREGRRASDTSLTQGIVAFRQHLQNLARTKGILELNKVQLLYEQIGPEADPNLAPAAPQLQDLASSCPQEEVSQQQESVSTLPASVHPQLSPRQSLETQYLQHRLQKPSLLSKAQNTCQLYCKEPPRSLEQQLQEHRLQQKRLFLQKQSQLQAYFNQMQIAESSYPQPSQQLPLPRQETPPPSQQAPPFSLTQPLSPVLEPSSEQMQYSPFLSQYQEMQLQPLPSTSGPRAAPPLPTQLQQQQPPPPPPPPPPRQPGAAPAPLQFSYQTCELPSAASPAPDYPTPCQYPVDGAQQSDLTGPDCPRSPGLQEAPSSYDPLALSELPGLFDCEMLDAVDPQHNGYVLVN
T2 sequence (Q07002 whole entry): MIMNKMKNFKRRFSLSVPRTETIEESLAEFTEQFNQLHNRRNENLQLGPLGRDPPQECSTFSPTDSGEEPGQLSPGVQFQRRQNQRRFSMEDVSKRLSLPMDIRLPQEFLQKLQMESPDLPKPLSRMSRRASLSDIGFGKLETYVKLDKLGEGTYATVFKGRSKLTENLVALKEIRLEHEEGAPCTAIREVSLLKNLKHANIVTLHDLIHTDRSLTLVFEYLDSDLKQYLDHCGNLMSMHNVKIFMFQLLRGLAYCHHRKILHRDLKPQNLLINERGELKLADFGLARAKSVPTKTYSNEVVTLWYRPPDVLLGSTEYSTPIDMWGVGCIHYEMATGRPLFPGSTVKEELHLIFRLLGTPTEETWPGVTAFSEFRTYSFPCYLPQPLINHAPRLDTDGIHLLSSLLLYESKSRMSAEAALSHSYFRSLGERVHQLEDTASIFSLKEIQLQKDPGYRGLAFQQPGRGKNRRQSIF
Sequence of SRMS (Q9H3Y6 whole entry): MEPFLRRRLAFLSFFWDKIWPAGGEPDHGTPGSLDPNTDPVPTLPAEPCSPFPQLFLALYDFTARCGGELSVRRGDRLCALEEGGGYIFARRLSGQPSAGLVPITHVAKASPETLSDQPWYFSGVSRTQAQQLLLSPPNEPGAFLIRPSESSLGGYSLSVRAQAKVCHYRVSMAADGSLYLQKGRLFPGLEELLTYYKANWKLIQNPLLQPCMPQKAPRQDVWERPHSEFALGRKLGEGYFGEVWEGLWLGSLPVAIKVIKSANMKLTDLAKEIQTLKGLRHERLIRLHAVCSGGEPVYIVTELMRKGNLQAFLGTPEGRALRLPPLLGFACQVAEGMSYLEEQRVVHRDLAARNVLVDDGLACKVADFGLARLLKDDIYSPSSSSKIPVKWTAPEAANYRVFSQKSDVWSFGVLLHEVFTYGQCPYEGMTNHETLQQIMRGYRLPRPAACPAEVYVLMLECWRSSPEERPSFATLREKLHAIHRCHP
T5 sequence (Q13131 whole entry): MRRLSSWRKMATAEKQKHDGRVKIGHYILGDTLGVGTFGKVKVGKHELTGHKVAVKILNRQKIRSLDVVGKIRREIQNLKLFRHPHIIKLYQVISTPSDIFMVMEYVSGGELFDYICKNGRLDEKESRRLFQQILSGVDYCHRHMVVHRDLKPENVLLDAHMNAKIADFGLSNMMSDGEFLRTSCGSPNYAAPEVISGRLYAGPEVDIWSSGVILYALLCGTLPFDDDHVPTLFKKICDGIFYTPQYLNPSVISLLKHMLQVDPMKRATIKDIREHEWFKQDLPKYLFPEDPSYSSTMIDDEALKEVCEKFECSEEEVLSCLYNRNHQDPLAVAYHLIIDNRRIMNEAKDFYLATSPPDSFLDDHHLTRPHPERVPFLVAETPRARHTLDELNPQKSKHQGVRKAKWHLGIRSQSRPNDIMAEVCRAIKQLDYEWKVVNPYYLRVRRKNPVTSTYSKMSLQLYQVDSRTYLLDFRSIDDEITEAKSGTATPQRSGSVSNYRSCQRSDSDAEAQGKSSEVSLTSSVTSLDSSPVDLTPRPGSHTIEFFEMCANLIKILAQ
Sequence of EGFR(L747-T751del,Sins) (P00533 with tags, fused parts or gaps DEL747-750/T751S): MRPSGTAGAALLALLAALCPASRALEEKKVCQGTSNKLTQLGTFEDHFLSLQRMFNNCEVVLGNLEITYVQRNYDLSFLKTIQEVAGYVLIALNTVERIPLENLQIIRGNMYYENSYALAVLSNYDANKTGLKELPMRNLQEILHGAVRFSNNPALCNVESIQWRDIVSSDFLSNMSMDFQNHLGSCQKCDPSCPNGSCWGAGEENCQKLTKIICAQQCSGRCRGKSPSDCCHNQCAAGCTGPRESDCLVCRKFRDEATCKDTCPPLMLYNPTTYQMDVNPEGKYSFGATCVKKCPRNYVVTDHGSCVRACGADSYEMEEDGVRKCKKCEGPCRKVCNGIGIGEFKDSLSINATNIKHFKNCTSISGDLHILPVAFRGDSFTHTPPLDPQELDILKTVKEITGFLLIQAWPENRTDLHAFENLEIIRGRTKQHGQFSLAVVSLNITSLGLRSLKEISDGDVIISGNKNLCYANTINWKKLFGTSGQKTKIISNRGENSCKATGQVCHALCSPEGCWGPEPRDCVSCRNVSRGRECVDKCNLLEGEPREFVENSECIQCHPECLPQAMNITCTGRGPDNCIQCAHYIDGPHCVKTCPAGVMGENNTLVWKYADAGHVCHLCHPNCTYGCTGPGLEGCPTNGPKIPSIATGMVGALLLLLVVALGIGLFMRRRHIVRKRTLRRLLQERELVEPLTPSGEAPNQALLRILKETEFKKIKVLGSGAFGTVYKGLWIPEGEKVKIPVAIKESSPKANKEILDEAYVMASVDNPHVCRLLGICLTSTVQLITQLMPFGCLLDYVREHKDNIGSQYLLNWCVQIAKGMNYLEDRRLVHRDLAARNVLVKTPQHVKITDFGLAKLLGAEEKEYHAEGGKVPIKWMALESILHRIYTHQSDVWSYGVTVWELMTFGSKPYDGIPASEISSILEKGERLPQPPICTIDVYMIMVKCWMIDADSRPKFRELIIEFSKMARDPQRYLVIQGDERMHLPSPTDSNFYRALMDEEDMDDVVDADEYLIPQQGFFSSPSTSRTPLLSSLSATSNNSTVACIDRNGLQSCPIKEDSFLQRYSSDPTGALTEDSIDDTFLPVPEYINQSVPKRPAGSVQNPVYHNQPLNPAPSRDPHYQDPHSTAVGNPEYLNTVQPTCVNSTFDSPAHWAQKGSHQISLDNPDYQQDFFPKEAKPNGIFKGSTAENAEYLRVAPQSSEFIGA
Sequence of TLK2 (Q86UE8 whole entry): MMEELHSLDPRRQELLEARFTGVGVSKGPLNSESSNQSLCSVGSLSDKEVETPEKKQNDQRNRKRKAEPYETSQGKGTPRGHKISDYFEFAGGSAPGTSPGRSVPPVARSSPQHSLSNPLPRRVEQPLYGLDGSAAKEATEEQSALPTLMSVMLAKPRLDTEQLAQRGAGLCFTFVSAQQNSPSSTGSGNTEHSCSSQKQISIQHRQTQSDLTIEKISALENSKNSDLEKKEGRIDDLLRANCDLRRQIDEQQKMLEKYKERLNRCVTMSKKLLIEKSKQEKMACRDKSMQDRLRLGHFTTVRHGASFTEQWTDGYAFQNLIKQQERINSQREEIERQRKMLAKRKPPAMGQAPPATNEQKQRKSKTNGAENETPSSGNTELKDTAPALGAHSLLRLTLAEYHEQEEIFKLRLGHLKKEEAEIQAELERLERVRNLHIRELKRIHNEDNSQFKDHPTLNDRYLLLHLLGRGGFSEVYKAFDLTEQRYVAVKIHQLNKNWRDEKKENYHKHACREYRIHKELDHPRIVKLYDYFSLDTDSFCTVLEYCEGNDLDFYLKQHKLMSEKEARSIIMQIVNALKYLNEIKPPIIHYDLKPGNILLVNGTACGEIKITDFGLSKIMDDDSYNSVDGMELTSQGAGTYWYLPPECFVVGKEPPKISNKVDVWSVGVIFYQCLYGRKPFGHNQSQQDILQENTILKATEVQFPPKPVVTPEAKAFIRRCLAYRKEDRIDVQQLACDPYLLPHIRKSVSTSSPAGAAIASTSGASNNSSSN
Sequence of VRK2 (Q86Y07 whole entry): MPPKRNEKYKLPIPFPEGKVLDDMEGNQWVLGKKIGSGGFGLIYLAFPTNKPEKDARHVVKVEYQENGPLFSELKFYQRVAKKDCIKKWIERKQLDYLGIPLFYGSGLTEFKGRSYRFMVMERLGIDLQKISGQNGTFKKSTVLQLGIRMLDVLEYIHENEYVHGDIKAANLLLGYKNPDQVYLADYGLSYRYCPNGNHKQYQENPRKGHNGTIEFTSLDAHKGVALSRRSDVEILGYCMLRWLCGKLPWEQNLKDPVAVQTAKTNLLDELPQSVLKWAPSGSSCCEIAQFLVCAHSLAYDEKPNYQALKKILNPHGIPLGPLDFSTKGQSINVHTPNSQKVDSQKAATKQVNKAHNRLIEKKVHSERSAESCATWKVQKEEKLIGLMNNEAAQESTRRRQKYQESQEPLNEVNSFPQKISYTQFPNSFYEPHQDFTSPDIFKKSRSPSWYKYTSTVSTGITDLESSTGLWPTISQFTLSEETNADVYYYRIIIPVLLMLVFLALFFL

Cn1ncnc1[C@H]1c2n[nH]c(=O)c3cc(F)cc(c23)N[C@@H]1c1ccc(F)cc1 [Talazoparib]
percent of control binding at 10 µM (MLK3; [1]): 70%
percent of control binding at 10 µM (PCTK3; [1]): 99%
percent of control binding at 10 µM (EGFR(L747-T751del,Sins); [1]): 89%
percent of control binding at 10 µM (SRMS; [1]): 100%
percent of control binding at 10 µM (MYLK4; [1]): 90%
percent of control binding at 10 µM (GRK1; [1]): 100%
percent of control binding at 10 µM (PIK3CA(I800L); [1]): 71%
percent of control binding at 10 µM (TLK2; [1]): 84%
percent of control binding at 10 µM (SIK2; [1]): 100%
percent of control binding at 10 µM (AMPK-alpha1; [1]): 100%
percent of control binding at 10 µM (FES; [1]): 98%
percent of control binding at 10 µM (VRK2; [1]): 100%
percent of control binding at 10 µM (SRPK2; [1]): 100%

O=C(c1cc(Cc2n[nH]c(=O)c3ccccc23)ccc1F)N1CCN(C(=O)C2CC2)CC1 [Olaparib]
percent of control binding at 10 µM (MLK3; [2]): 100%
percent of control binding at 10 µM (PCTK3; [2]): 100%
percent of control binding at 10 µM (EGFR(L747-T751del,Sins); [2]): 81%
percent of control binding at 10 µM (SRMS; [2]): 92%
percent of control binding at 10 µM (MYLK4; [2]): 92%
percent of control binding at 10 µM (GRK1; [2]): 91%
percent of control binding at 10 µM (PIK3CA(I800L); [2]): 80%
percent of control binding at 10 µM (TLK2; [2]): 95%
percent of control binding at 10 µM (SIK2; [2]): 100%
percent of control binding at 10 µM (AMPK-alpha1; [2]): 98%
percent of control binding at 10 µM (FES; [2]): 92%
percent of control binding at 10 µM (VRK2; [2]): 99%
percent of control binding at 10 µM (SRPK2; [2]): 86%

NC(=O)c1cccc2cn(-c3ccc([C@@H]4CCCNC4)cc3)nc12 [Niraparib]
percent of control binding at 10 µM (MLK3; [3]): 84%
percent of control binding at 10 µM (PCTK3; [3]): 70%
percent of control binding at 10 µM (EGFR(L747-T751del,Sins); [3]): 90%
percent of control binding at 10 µM (SRMS; [3]): 100%
percent of control binding at 10 µM (MYLK4; [3]): 20%
percent of control binding at 10 µM (GRK1; [3]): 95%
percent of control binding at 10 µM (PIK3CA(I800L); [3]): 38%
percent of control binding at 10 µM (TLK2; [3]): 95%
percent of control binding at 10 µM (SIK2; [3]): 91%
percent of control binding at 10 µM (AMPK-alpha1; [3]): 77%
percent of control binding at 10 µM (FES; [3]): 83%
percent of control binding at 10 µM (VRK2; [3]): 65%
percent of control binding at 10 µM (SRPK2; [3]): 100%

CNCc1ccc(-c2[nH]c3cc(F)cc4c3c2CCNC4=O)cc1 [Rucaparib]
percent of control binding at 10 µM (MLK3; [4]): 92%
percent of control binding at 10 µM (PCTK3; [4]): 69%
percent of control binding at 10 µM (EGFR(L747-T751del,Sins); [4]): 86%
percent of control binding at 10 µM (SRMS; [4]): 79%
percent of control binding at 10 µM (MYLK4; [4]): 1.3%
percent of control binding at 10 µM (GRK1; [4]): 64%
percent of control binding at 10 µM (PIK3CA(I800L); [4]): 66%
percent of control binding at 10 µM (TLK2; [4]): 84%
percent of control binding at 10 µM (SIK2; [4]): 96%
percent of control binding at 10 µM (AMPK-alpha1; [4]): 92%
percent of control binding at 10 µM (FES; [4]): 94%
percent of control binding at 10 µM (VRK2; [4]): 95%
percent of control binding at 10 µM (SRPK2; [4]): 68%
